Columns and labels:
[1] = test system: human breast cancer cell line, MDA-MB-453; experiment: In vivo mammary cancer inhibiting effect (1); set-up: species or system female Balb/C strain athymic nude mice; settings: for Tumor growth rate (%): oral, tumor volume vs control
Method: 5,000,000 cells of human breast cancer cell line, MDA-MB-453, were suspended in a gelmatrix solution. The suspension was subcutaneously implanted at the breast in 7-week-old female Balb/C strain athymic nude mice (Friedman R. et al., Proceedings of the National Academy of Sciences of the U.S.A. Vol. 87, pp.6698-6702, 1990). Twelve days after the implantation, the diameters of tumors were determined. For the experiment were used 5 mice per group with similar tumor size. Compound 8 of the present invention was suspended in a 5% gum arabic solution (physiologicalsaline) and administered orally twice daily in dose of 30 mg/kg body weight for 10 days, or 2 cycle oral administrations consisting of 45 mg/kg body weight twice daily for 3 days and no treatment for 3 days were performed. On the day when the dosing was ended, the diameters of tumors were measured. Tumor volume was calculated by the following formula: volume of tumor=longest diameter×shortest diameter×shortest diameter×1/2. The growth rate of tumors was obtained as the proportion to the volume of tumor in the control animals in which only the gum arabic solution was administered. The body weights of mice administered with Compound 8 of the present invention were measured during the experiment to observe no decrease.

[2] = Body weights of mice during the in vivo tumor experiments; set-up: species or system Balb/C strain athymic nude mice
Method: 5,000,000 cells of human breast cancer cell line, MDA-MB-453, were suspended in a gelmatrix solution. The suspension was subcutaneously implanted at the breast in 7-week-old female Balb/C strain athymic nude mice (Friedman R. et al., Proceedings of the National Academy of Sciences of the U.S.A. Vol. 87, pp.6698-6702, 1990). Twelve days after the implantation, the diameters of tumors were determined. For the experiment were used 5 mice per group with similar tumor size. […] On the day when the dosing was ended, the diameters of tumors were measured. Tumor volume was calculated by the following formula: volume of tumor=longest diameter×shortest diameter×shortest diameter×1/2. […] The body weights of mice administered with Compound 8 of the present invention were measured during the experiment to observe no decrease.
5,000,000 cells of human breast cancer cell line, MDA-MB-453, were suspended in a gelmatrix solution. […] Twelve days after the implantation, the diameters of tumors were determined. […] On the day when the dosing was ended, the diameters of tumors were measured. Tumor volume was calculated by the following formula: volume of tumor=longest diameter×shortest diameter×shortest diameter×1/2. […] The body weights of mice administered with compounds of the present invention were measured during the experiment to observe no decrease. […]

C(=C\c1nc(COc2ccc(CCCn3ccnc3)cc2)co1)/c1ccccc1 [Compound 8, 4-[4-[3-(1-imidazolyl)propyl]phenoxymethyl]-2-[(E)-2-phenylethenyl]oxazole]
Tumor growth rate (%) ([1]; 60 mg/kg/day, 30 mg/kg twice daily for 10 days): 71% | Tumor growth rate (%) ([1]; 90 mg/kg/day, 2 cycles of 45 mg/kg twice daily 3 days and 3 days off): 46% | Inhibition of implanted tumor growth ([1]; MDA-MB-453, athymic nude mice): inhibited dose-dependently the growth of human breast cancer | Body weight change ([2]; Test Example 8, MDA-MB-453-bearing mice): no decrease | Body weight change ([2]; Test Example 11, LNCaP-bearing mice, oral 30 mg/kg twice daily 21 days): no decrease
